What was measured:
mice [1] = assay: Subcutaneous pentylenetetrazole (scPTZ) seizure test; type: in vivo; conditions: 100 mg/kg i.p.
Text: (§1) These parameters were then used to calculate the protective indexes (PIs, PI = TD50/ED50), which describe the therapeutics window of potential drug candidates. The ED50, TD50, and PI values for the tested compounds together with data of their chemical prototypes KA-11 and KJ-5 and reference ASMs are summarized in Table 2.
(§2) In the initial screening studies, four mice per group were randomly assigned to each experimental group (each mouse was used only once). To evaluate the ED50 or TD50 values, four groups consisting of eight animals were injected with various doses of tested compounds. The protective indexes (PIs) for the compounds investigated and reference ASMs were calculated by dividing the TD50 value, as determined in the chimney test, by the respective ED50 value, as determined in the MES, scPTZ, or 6 Hz (32 or 44 mA) tests (PI = TD50/ED50). The PIs are a measure of the potential therapeutic window of the tested agent.
(§3) All substances were suspended in Tween 80 (1% aqueous solution) and administered i.p. as a single injection at a dose of 10 mL/kg. On each day of experimentation, fresh solutions were prepared. The detailed in vivo procedures are described elsewhere: the maximal electroshock seizure test (MES),[60] the subcutaneous pentylenetetrazole seizure test (scPTZ),[61] the 6 Hz psychomotor seizure model (32 and 44 mA),[62] and the chimney test.[63] The reference ASMs were purchased from commercial suppliers: VPA (Sigma-Aldrich, St. Louis, MO), LCS, and LEV (UCB Pharma, Braine l’Alleud, Belgium).

mice [2] = assay: 6 Hz (32 mA) psychomotor seizure model; type: in vivo; conditions: Mus musculus, ip; for responders at 100 mg/kg: 100 mg/kg i.p., 0.5 h
Text: (§4) Identification and profiling of new ASM candidate compounds are still largely based on predictive animal models of seizures/epilepsy, while a range of in silico and in vitro approaches (i.e., molecular modeling or high throughput screening, etc.) are increasingly used in the early stages of ASM discovery.[31] The Epilepsy Therapy Screening Program (ETSP) of the National Institute of Neurological Disorders and Stroke (NIH, Bethesda, MD) has enabled the discovery of several approved ASMs by focusing on the in vivo testing of compounds synthesized by both academic laboratories and industry.[32] The ETSP provides a broad panel of seizure tests (ca. 30 rodent models), but a subset of them is used for the initial screening of new compounds with potential antiseizure activity. The routinely used seizure models include: (i) the MES test, which is an experimental model of tonic–clonic seizures, (ii) the 6 Hz model (32 mA) of focal seizures, and (iii) the scPTZ model of generalized absence or myoclonic seizures.[33],[34] Consequently, in the current studies, all final compounds 21–36 and 45–48 were initially studied in the MES and the 6 Hz (32 mA) seizure models after intraperitoneal (i.p.) administration at a screening dose of 100 mg/kg in mice at a time point of 0.5 h (the screening group consisted of four mice, and the results obtained are summarized in Table S1).
as §1
(§5) The adult male Albino Swiss mice weighed between 22 and 26 g were used in the in vivo studies. They were housed under standardized housing conditions in colony cages and had free access to food as well as tap water. The animals were left to adapt under laboratory conditions for 7 days. All procedures involving animals and their care were performed in accordance with the current European Community and Polish legislation on animal experimentation.
as §2, §3

mice [3] = assay: Maximal electroshock (MES) seizure test; type: in vivo; conditions: Mus musculus, ip
Text: as §4, §1, §5, §2, §3

TRPV1 (VR1) (h) = biological target: T1, TRPV1 (VR1) (h) (Homo sapiens, UniProt Q8NER1); assay: TRPV1 antagonist effect functional assay; type: cell-based; conditions: 10 μM, human recombinant CHO cells; read-out: % inhibition of control agonist response
T1 construct: Eurofins (contract assay)
T1 sequence (Q8NER1 whole entry): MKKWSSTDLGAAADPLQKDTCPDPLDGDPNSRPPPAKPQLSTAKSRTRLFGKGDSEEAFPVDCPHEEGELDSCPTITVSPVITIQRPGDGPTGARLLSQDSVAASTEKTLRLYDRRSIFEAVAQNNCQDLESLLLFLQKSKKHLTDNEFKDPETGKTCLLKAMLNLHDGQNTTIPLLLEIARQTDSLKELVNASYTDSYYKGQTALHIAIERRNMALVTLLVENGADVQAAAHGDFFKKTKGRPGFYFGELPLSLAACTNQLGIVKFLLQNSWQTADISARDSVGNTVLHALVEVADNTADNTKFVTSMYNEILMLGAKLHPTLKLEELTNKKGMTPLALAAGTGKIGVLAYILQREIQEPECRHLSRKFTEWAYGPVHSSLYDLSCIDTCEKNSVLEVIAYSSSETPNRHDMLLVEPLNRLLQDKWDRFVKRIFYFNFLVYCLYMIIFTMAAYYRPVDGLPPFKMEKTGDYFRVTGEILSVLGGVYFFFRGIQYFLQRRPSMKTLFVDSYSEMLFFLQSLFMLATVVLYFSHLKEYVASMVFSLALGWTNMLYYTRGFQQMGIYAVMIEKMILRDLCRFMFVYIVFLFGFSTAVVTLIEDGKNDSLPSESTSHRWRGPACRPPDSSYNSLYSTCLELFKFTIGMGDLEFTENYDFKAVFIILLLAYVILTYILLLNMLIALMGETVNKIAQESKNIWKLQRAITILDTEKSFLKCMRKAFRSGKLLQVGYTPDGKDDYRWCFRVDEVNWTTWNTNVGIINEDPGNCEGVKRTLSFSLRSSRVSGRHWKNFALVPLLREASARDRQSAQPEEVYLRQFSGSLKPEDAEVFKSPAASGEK
Description: For many years, the TRPV1 channel, permeable to calcium and sodium ions, has been recognized as a promising molecular target for novel analgesics.[19] […] Therefore, bearing in mind the involvement of TRPV1 in pain sensation and potentially in seizure induction, in the next step of the in vitro studies, the TRPV1 antagonist activity was determined for all compounds obtained (Table 6).
Binding/functional studies were carried out commercially in Eurofins Laboratories (Poitiers, France) and Eurofins Panlabs Discovery Services Taiwan, Ltd. (New Taipei City, Taiwan) using testing procedures that were reported previously (for details, see Table S2).
Table S2. Radioligand binding and functional assays. […]
TRPV1 (VR1) (h) (antagonist effect) […]
Assays were performed commercially in Eurofins Laboratories ( Poitiers, France) or Eurofins Panlabs Discovery Services
Taiwan, Ltd. (New Taipei City, Taiwan).

SMILES: CC(=O)NC(C)C(=O)N1CCN(c2cccc(SC(F)(F)F)c2)CC1 (stereo not drawn) [Compound 30, N-(1-oxo-1-(4-(3-((Trifluoromethyl)thio)phenyl)piperazin-1-yl)propan-2-yl)acetamide]
- protection in scPTZ screening (mice [1]): 50%
- scPTZ: number of mice protected/number of mice tested (mice [1]; 0.5 h): 2/4
- responders at 100 mg/kg (mice [2]; four mice, read-out: protection in 6 Hz (32 mA) screening): 100%
- responders at 100 mg/kg (mice [2]; read-out: 6 Hz (32 mA): number of mice protected/number of mice tested (converted)): 100%
- ED50 (mice [2]; mice, pretreatment 0.5 h): 39.1 mg/kg
- responders at 100 mg/kg (mice [3]; 100 mg/kg i.p., 0.5 h, read-out: MES: number of mice protected/number of mice tested (converted)): 100%
- ED50 (mice [3]; mice, pretreatment 0.5 h): 45.3 mg/kg
- inhibition at 10 µM (TRPV1 (VR1) (h)): 12%
- melting point: 110.9 to 111.7 °C

Source: paper PMC11157491, “Novel Alaninamide Derivatives with Drug-like Potential for Development as Antiseizure and Antinociceptive Therapies—In Vitro and In Vivo Characterization” (ACS Chemical Neuroscience, 2024)
